The source made the active and inactive calls. The calls are words filed in the database; no cut-off is given here.
Assays:
[1] = biological target: Delta-type opioid receptor (Homo sapiens, UniProt P41143); assay: Agonist activity at human DOR expressed in HEK293 cells assessed as inhibition of forskolin-induced adenylyl cyclase-mediated cAMP accumulation after 30 mins by HTRF assay; assay type: functional, cell-based
[2] = biological target: T1, Mu-type opioid receptor (Homo sapiens, UniProt P35372); assay: Agonist activity at human MOR expressed in HEK293 cells assessed as inhibition of forskolin-induced adenylyl cyclase-mediated cAMP accumulation after 30 mins by HTRF assay; assay type: functional, cell-based
[3] = biological target: T2, Kappa-type opioid receptor (Homo sapiens, UniProt P41145); assay: Agonist activity at human KOR expressed in HEK293 cells assessed as inhibition of forskolin-induced adenylyl cyclase-mediated cAMP accumulation after 30 mins by HTRF assay; assay type: functional, cell-based
[4] = biological target: T1, Mu-type opioid receptor; assay: Displacement of [3H]naloxone from recombinant human MOR expressed in HEK cell membranes incubated for 60 mins
[5] = Ratio of drug level in brain to plasma in […] mouse at 3 mg/kg, iv measured after 0.8 hrs; assay type: ADME, organism-based; conditions: read-out: BPR
[6] = Drug uptake in […] mouse plasma at 3 mg/kg, iv measured after 0.8 hrs by LC-MS/MS analysis; assay type: ADME, organism-based
[7] = Drug uptake in […] mouse brain at 3 mg/kg, iv measured after 0.8 hrs by LC-MS/MS analysis; assay type: ADME, organism-based; conditions: read-out: Drug uptake
[8] = test system: Mus musculus; assay: Antinociceptive activity in iv dosed B6 mouse assessed as increase in tail flick latency at 3 mg/kg, iv measured at every 10 mins for 1 hr in presence of opioid antagonist naloxone; assay type: functional, organism-based
[9] = biological target: T1, Mu-type opioid receptor; assay: Agonist activity at myc-tagged MOR (unknown origin) expressed in mouse AtT-20 cells harboring GIRK1/GIRK2 channels assessed as membrane potential hyperpolarization at 1 uM in presence of naloxone by FLIPR membrane potential; assay type: cell-based
[10] = test system: Mus musculus; assay: Antinociceptive activity in B6 mouse assessed as AUC of thermal withdrawal effect at 3 mg/kg, iv measured at every 10 mins for 1 hr by tail flick assay; assay type: functional, organism-based
[11] = biological target: T1, Mu-type opioid receptor; assay: Agonist activity at myc-tagged MOR (unknown origin) expressed in mouse AtT-20 cells harboring GIRK1/GIRK2 channels assessed as stimulation of membrane potential hyperpolarization at 1 uM by FLIPR assay; assay type: cell-based
[12] = biological target: T2, Kappa-type opioid receptor; assay: Agonist activity at human KOR expressed in HEK293 cells assessed as inhibition of forskolin-induced adenylyl cyclase-mediated cAMP accumulation at 1 uM after 30 mins in presence of KOR antagonist nor-binaltorphimine by HTRF assay; assay type: functional, cell-based
[13] = test system: Mus musculus; assay: Antinociceptive activity in iv dosed B6 mouse assessed as increase in tail flick latency at 3 mg/kg, iv measured at every 10 mins for 1 hr; assay type: functional

Sequence of Delta-type opioid receptor (P41143 whole entry): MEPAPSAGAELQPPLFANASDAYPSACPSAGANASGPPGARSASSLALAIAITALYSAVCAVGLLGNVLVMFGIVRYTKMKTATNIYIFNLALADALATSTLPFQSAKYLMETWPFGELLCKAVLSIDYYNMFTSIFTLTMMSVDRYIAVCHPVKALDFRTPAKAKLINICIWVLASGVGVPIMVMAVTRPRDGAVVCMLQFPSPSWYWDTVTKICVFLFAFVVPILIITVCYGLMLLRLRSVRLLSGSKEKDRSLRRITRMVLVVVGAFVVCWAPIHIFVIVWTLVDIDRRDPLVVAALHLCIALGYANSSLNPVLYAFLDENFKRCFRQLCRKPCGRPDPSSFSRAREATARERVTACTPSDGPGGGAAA
T1 sequence (P35372 whole entry): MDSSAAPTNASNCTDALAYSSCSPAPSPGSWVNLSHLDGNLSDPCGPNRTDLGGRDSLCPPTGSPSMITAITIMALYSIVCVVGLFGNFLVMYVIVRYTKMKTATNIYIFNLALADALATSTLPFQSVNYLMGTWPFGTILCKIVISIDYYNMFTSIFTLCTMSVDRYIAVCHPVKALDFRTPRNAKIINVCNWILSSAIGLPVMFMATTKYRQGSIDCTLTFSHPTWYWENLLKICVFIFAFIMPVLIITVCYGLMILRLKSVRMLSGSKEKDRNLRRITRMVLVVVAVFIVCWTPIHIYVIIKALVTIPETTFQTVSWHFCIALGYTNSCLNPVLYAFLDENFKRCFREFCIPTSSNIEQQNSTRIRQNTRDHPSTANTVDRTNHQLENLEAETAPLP
T2 sequence (P41145 whole entry): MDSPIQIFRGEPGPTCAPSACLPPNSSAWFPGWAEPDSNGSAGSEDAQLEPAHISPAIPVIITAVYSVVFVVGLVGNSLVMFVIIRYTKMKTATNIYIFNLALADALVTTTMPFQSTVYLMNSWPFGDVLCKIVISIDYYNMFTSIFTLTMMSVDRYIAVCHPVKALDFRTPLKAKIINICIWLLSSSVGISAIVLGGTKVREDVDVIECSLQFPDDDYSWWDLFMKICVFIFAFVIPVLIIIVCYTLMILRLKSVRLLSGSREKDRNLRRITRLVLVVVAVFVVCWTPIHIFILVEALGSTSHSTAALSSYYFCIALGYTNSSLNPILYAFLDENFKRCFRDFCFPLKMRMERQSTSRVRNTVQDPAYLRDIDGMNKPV

Row | SMILES | IC50 [2] | Imax [2] | IC50 [3] | Imax [3] | IC50 ([1]; hek293) | Ki [4] | further results
1 | O=C(NCC1NCCc2ccccc21)c1cccc(Cl)c1 (configuration not stated) | 2030 nM | 78.2% | 1120 nM | 26.9% | – | – | Imax [1]: 21.1%; IC50 ([1]; read-out: IC50): 170 nM
2 | O=C(NCC1NCCc2ccccc21)c1ccc(Cl)c(Cl)c1 (configuration not stated) | 230 nM | – | 810 nM | 27.5% | Not Active | 54.3 nM | –
3 | CCc1ccc(C(=O)NCC2NCCc3ccccc32)cc1 (configuration not stated) | 310 nM | 63.9% | 570 nM | 29% | Not Active | 4.65 nM | –
4 | Cc1ccc(C(=O)NCC2c3ccccc3CCN2C)cc1C (configuration not stated) | 80 nM | 69.3% | 80 nM | 34.6% | Not Active | 30.8 nM | Kp at 0.8 h [5]: 5.1; concentration at 0.8 h [6]: 1460 ng/mL; concentration at 0.8 h [7]: 7420 ng/g; Activity [8]: inactive; Activity [9]: inactive; AUC [10]: 268 min.sec; Activity [11]: 20%
5 | CN1CCc2ccccc2C1CNC(=O)c1ccc(Cl)c(Cl)c1 (configuration not stated) | 50 nM | 69.5% | 440 nM | 28.3% | Not Active | 6.91 nM | Kp at 0.8 h [5]: 4.5; Activity [12]: inactive; concentration at 0.8 h [6]: 2610 ng/mL; concentration at 0.8 h [7]: 11700 ng/g; Activity [8]: inactive; Activity [9]: inactive; AUC [10]: 371 min.sec; ED50 [13]: 1.06 mg/kg; Activity [11]: 20%
6 | COc1ccc(C(=O)NCC2NCCc3ccccc32)cc1 (configuration not stated) | 1580 nM | – | 50 nM | 21.8% | Not Active | – | –
7 | O=C(NCC1c2ccccc2CCN1S(=O)(=O)c1ccc(Br)cc1OC(F)(F)F)C1CCCCC1 (configuration not stated) | – | – | – | – | – | – | Kp at 0.8 h [5]: 1.1; concentration at 0.8 h [6]: 1290 ng/mL; concentration at 0.8 h [7]: 1440 ng/g
8 | O=C(NCC1NCCc2ccccc21)c1ccc(F)cc1 (configuration not stated) | 830 nM | – | 18600 nM | 38.9% | – | – | Imax [1]: 22%; IC50 ([1]; read-out: IC50): 40 nM
9 | Cc1ccc(C(=O)NCC2NCCc3ccccc32)cc1C (configuration not stated) | 290 nM | – | 8930 nM | 27% | Not Active | 36.4 nM | –
10 | Cc1ccc(C(=O)NCC2c3ccccc3CCN2C)cc1 (configuration not stated) | 650 nM | 72.4% | 140 nM | 27.1% | Not Active | 5.28 nM | –
11 | Cc1ccc(C(=O)NCC2c3ccccc3CCN2CCCl)cc1 (configuration not stated) | 200 nM | 67.8% | 2940 nM | 30% | Not Active | – | –
12 | Cc1ccc(C(=O)NCC2NCCc3ccccc32)cc1 (configuration not stated) | – | – | – | – | – | 6.47 nM | –
13 | O=C(NCC1NCCc2ccccc21)c1ccc(OC(F)(F)F)cc1 (configuration not stated) | 1220 nM | – | 260 nM | 38.2% | – | – | Imax [1]: 22.7%; IC50 ([1]; read-out: IC50): 40 nM
14 | CCc1ccc(C(=O)NCC2c3ccccc3CCN2C)cc1 (configuration not stated) | 3280 nM | 61.9% | 490 nM | 26.3% | – | 2.27 nM | Imax [1]: 22.1%; IC50 ([1]; read-out: IC50): 190 nM
15 | O=C(NCC1NCCc2ccccc21)c1ccc(Cl)cc1 (configuration not stated) | 220 nM | – | 90 nM | 35.1% | – | – | Imax [1]: 24.1%; IC50 ([1]; read-out: IC50): 4180 nM
16 | CCCCN1CCc2ccccc2C1CNC(=O)c1ccc(C)cc1 (configuration not stated) | 1330 nM | 69.3% | 780 nM | 24.1% | Not Active | – | –
17 | C[C@@H](NC(=O)[C@@H](N)Cc1ccc(O)cc1)C(=O)NCC(=O)N(C)[C@@H](Cc1ccccc1)C(=O)NCCO | – | 82.4% | – | – | – | – | –
18 | Cc1cccc(C(=O)NCC2NCCc3ccccc32)c1 (configuration not stated) | 1270 nM | 68.3% | 140 nM | 26.6% | Not Active | – | –

Source: ChEMBL document CHEMBL3992491, “Discovery, structure-activity relationship studies, and anti-nociceptive effects of N-(1,2,3,4-tetrahydro-1-isoquinolinylmethyl)benzamides as novel opioid receptor agonists” (Eur J Med Chem, 2017)
